In article PMC9055250, “Design, synthesis, and biological evaluation of new 6,N^2-diaryl-1,3,5-triazine-2,4-diamines as anticancer agents selectively targeting triple negative breast cancer cells” (RSC Advances, 2020):
Where two headings read alike, the source gives them in different places.

Tests used:
[1] = test system: SKBR-3 breast cancer cells; experiment: MTT in vitro cytotoxicity assay, SKBR-3; format: cell-based; settings: Homo sapiens; for viability at 10 µM: SK-BR-3, 10 μM, 72 h, read-out: Cell viability (%) SKBR-3; for GI50: SK-BR-3, 72 h, read-out: GI50 ± SD SKBR-3
Description: (§1) The synthesized compounds were tested against three breast tumor cell lines (MDA-MB231, SKBR-3 and MCF-7) and epithelial breast cell line (MCF-10A) by the MTT colorimetric assay.[29,30] All cells were obtained from the American Type Culture Collection. The cancerous cell lines were grown in Dulbecco's modified eagle medium (DMEM) supplemented with 10% fetal bovine serum (FBS) and 1% pen-strep antibiotic. The MCF-10A human epithelial breast cell line was grown in the complete mammary epithelial growth medium containing horse serum 5%, epithelial growth factor 20 ng mL^−1, hydrocortisone […], cholera toxin 100 ng mL^−1, insulin 10 μg mL^−1, and pen-step antibiotic.[31] For the cytotoxic assay, 20 to 75 × 10^3 cells per mL (based on the doubling time for each cell line) were seeded in 96-well plates and the plates were incubated overnight in a humidified air atmosphere at 37 °C in 5% CO2 incubator.
(§2) The cells were then treated with compounds at different concentrations. After 72 h of incubation, the MTT (0.5 mg mL^−1) was added to wells, followed by 4 h of incubation. The culture medium was then removed and DMSO (100 μL per well) was added and the absorbance values were measured at 570 nm using the multi-well Tecan NanoQuant, Infinite m200 Pro plate reader. Growth inhibitory values (GI50) were calculated using GraphPad Prism 7 (GraphPad Software, San Diego, USA) by nonlinear regression analysis. Three independent experiments were carried out and the data was expressed in mean ± standard deviation (SD). The concentration–response curves used for the GI50 calculation are available in ESI. ^†

[2] = test system: MDA-MB231 breast cancer cells; experiment: Time-dependent cytotoxicity (MTT); format: cell-based; settings: for inhibition at 0.125 µM / growth inhibition at 125 nM, 12 h: MDA-MB231, 125 nM
Description: MDA-MB231 breast cancer cells were grown in DMEM supplemented with 10% FBS and 1% pen-strep antibiotic. The cells were seeded in 96-well plates (20 × 10^3 cells per mL) and the plates were incubated overnight in a humidified air atmosphere at 37 °C in 5% CO2 incubator. The cells were then treated with compounds 16 or 18 in concentrations ranging from 0.2 nM to 125 nM for 12, 24, 48, and 72 h. After specified time for each experiment, MTT (0.5 mg mL^−1) was added to wells, followed by 4 h of incubation. The culture medium was then removed and DMSO (100 μL per well) was added and the absorbance values were measured at 570 nm using the multi-well Tecan NanoQuant, Infinite m200 Pro plate reader. GI50 values were calculated using GraphPad Prism 7 (GraphPad Software, San Diego, USA) by nonlinear regression analysis. All the time-dependent experiments at different times were carried out using the same passage of MDA-MB231 cells. Three independent experiments were carried out and the data were expressed in mean ± standard deviation (SD).

[3] = test system: MDA-MB231 breast cancer cells; experiment: MTT in vitro cytotoxicity assay, MDA-MB231; format: cell-based; settings: for viability at 10 µM / GI50: Homo sapiens, MDA-MB-231; for viability at 10 µM: read-out: Cell viability (%) MDA-MB231
Description: as §1, §2

[4] = test system: MCF-10A human epithelial breast cell line; experiment: MTT in vitro cytotoxicity assay, MCF-10A; format: cell-based; settings: 72 h, read-out: GI50 ± SD MCF-10A
Description: as §1, §2

[5] = test system: MDA-MB231 cells; experiment: Acridine orange/propidium iodide double staining, fluorescence microscopy; format: cell-based; settings: MDA-MB231, 24 h after treatment; 16 at 125 and 250 nM, 18 at 2.5 and 5 nM
Description: Fluorescence microscopy was used to visualize the apoptosis in cancer cells with AO/PI staining.[20] MDA-MB231 cells were grown in 6-well plate (5 × 10^5 cells per well). […] One of the six wells was treated with 1% DMSO and served as a negative control, another well treated with methotrexate served as a positive control. After 24 h of incubation, the wells were washed with phosphate buffered saline (PBS) three times and 100 μL of AO (100 μg mL^−1 in PBS) and 25 μL of PI (100 μg mL^−1 in PBS) in 1 mL of media were added to each well. The plate was then observed under a motorized inverted fluorescent microscope (Eclipse Ti2-E, Nikon). Three independent experiments at each concentration were carried out.

[6] = test system: MCF-7 breast cancer cells; experiment: MTT in vitro cytotoxicity assay, MCF-7; format: cell-based; settings: Homo sapiens; for viability at 10 µM: MCF7, 10 μM, 72 h, read-out: Cell viability (%) MCF-7; for GI50: MCF7, 72 h, read-out: GI50 ± SD MCF-7
Description: as §1, §2

[7] = test system: MDA-MB231 cells; experiment: Live cell imaging with AO/PI; format: cell-based; settings: MDA-MB231, 10 μM, 4 h
Description: MDA-MB231 cells (1 × 10^6 cells) were seeded in a Petri dish and incubated overnight in a humidified air atmosphere at 37 °C in 5% CO2 incubator. Then, the Petri dish was washed with PBS three times and 300 μL of AO (100 μg mL^−1 in PBS) and 75 μL of PI (100 μg mL^−1 in PBS) in 3 mL of media were added to the Petri dish. The cells were treated with 10 μM of compound 18 and the dish was then transferred to motorized inverted fluorescent microscope (Eclipse Ti2-E, Nikon). The pictures were taken every 10 minutes for 4 h and intercalated into video (see ESI ^†).

[8] = Homo sapiens, MDA-MB-231, 12 h, read-out: growth inhibition at 125 nM, 12 h
[9] = Homo sapiens, MDA-MB-231, MDA-MB231, 24 h, concentration used in Fig. 3
[10] = Homo sapiens, MDA-MB-231, MDA-MB231, 72 h, read-out: GI50 ± SD, 72 h
[11] = 72 h, MTT, read-out: GI50 ± SD MDA-MB231
[12] = MDA-MB231, calculated from GI50, read-out: Experimental pGI50 (converted)

Row | SMILES | viability at 10 µM [1] [%] | GI50 [1] [µM] | inhibition at 0.125 µM [2, 8] [%] | GI50 [2, 10] [µM] | growth inhibition at 125 nM, 12 h ([2]; 12 h) | viability at 10 µM ([3]; 72 h, MTT) [%] | GI50 [3, 11] [µM] | GI50 [3, 12] [µM] | GI50 [4] [µM] | cell morphology, AO/PI double staining [5] | viability at 10 µM [6] [%] | GI50 [6] [µM] | melting point [°C] | other results
1 | COc1cc(-c2nc(N)nc(Nc3ccc(C)cc3)n2)cc(OC)c1OC [Compound 18, N ^2-(4-Methylphenyl)-6-(3,4,5-trimethoxyphenyl)-1,3,5-triazine-2,4-diamine] | 37 | 0.21 ± 0.01 | 15 | 0.001 ± 2e-05 | no significant inhibition of the cell growth | 14 | 0.001 ± 1e-05 | 0.002 | > 20 | signs of apoptosis | 62 | > 20 | – | IC20 [2, 9]: 0.0025 µM; IC50 [2, 9]: 0.005 µM; GI50 ([2]; Homo sapiens, MDA-MB-231, MDA-MB231, 24 h, read-out: GI50 ± SD, 24 h): 0.005 ± 0.0001 µM; GI50 ([2]; Homo sapiens, MDA-MB-231, MDA-MB231, 48 h, read-out: GI50 ± SD, 48 h): 0.004 ± 0.0003 µM; fold more active than methotrexate ([3]; MDA-MB231): 10 fold; fold more potent than nilotinib ([3]; MDA-MB231): 40 fold; morphological changes in live cell imaging [7]: inducing apoptosis
2 | Cc1ccc(-c2nc(N)nc(Nc3ccccc3Cl)n2)cc1 [Compound 6, N ^2-(2-Chlorophenyl)-6-(4-methylphenyl)-1,3,5-triazine-2,4-diamine] | 80 | > 20 | – | – | – | 36 | 3.8 ± 0.4 | 3.8 | > 20 | – | 51 | 10.7 ± 1 | 146 to 148 | –
3 | COc1cc(-c2nc(N)nc(Nc3ccccc3Cl)n2)cc(OC)c1OC [Compound 12, N ^2-(2-Chlorophenyl)-6-(3,4,5-trimethoxyphenyl)-1,3,5-triazine-2,4-diamine] | 80 | > 20 | – | – | – | 42 | 11.3 ± 1.1 | 11.2 | > 20 | – | 100 | > 20 | 176 to 178 | –
4 | COc1cc(-c2nc(N)nc(Nc3ccccc3)n2)cc(OC)c1OC [Compound 10, N ^2-Phenyl-6-(3,4,5-trimethoxyphenyl)-1,3,5-triazine-2,4-diamine] | 37 | 17.2 ± 0.4 | – | – | – | 14 | 9.7 ± 0.6 | 9.77 | > 20 | – | 62 | > 20 | 111 to 113 | –
5 | COc1cc(-c2nc(N)nc(Nc3ccc(Cl)cc3)n2)cc(OC)c1OC [Compound 16, N ^2-(4-Chlorophenyl)-6-(3,4,5-trimethoxyphenyl)-1,3,5-triazine-2,4-diamine] | 48 | 0.3 ± 0.04 | 17 | 0.007 ± 0.0006 | no significant inhibition of the cell growth | 20 | 0.007 ± 1e-05 | 0.00708 | > 20 | signs of apoptosis | 52 | 12.5 ± 0.2 | 209 to 211 | inhibition at 0.125 µM ([2]; Homo sapiens, MDA-MB-231, 24 h, read-out: growth inhibition at 125 nM, 24 h): 61%; inhibition at 0.125 µM ([2]; Homo sapiens, MDA-MB-231, 48 h, read-out: growth inhibition at 125 nM, 48 h): 75%
6 | COc1ccccc1Nc1nc(N)nc(-c2cccc(F)c2)n1 [Compound 1, 6-(3-Fluorophenyl)-N^2-(2-methoxyphenyl)-1,3,5-triazine-2,4-diamine] | 84 | > 20 | – | – | – | 49 | 17.3 ± 0.6 | 17.4 | > 20 | – | 88 | > 20 | 140 to 142 | –
